{
  "source": "paper PMC9587990",
  "about": "“Molecular basis for isoform-selective inhibition of presenilin-1 by MRK-560” (Nature Communications, 2022)",
  "key": {"[1]": {"target": "T1, PS2 PI287-288TL γ-secretase complex (Homo sapiens, UniProt P49810, I288L/P287T)", "T1 construct": "made in house", "experiment": "in vitro cleavage assay, Aβ40 production by AlphaLISA", "format": "biochemical", "conditions": "for remaining activity at 0.002 µM / remaining activity at 0.04 µM / remaining activity at 0.2 µM / remaining activity at 1 µM / remaining activity at 10 µM / remaining activity at 20 µM: 4 h", "method": "(§1) In total we generated six variants, including single and double residue swapping of Thr281/Leu282 in PS1 with Pro287/Ile288 in PS2, respectively. MRK-560 response to the six PS1/PS2 mutant-containing complexes, each purified to homogeneity, was examined in the in vitro cleavage assay (Fig. 4). All proteins used for the activity assay were sub-cloned, expressed and purified as described. Protein concentration was determined using the Bradford method. […] The cleavage reaction was conducted at 37 °C for 4 h. The cleaved products of these substrates were detected using a monoclonal antibody (1:1000 dilution, CW0299, CWBio) against the C-terminal Myc tag. Aβ40 production was detected using the AlphaLISA assay (PerkinElmer) as described. The IC50 values and the inhibition curves were calculated using Prism 8.0. Statistical analysis of Aβ40 was performed using Prism 8 (GraphPad Software, San Diego, CA, USA). IC50 were determined by a four-parameter logistic regression. The statistical details can be found in Figs. 1, 4 and legends. Data are expressed as mean ± SD."}, "[2]": {"target": "T2, PS1 L282I γ-secretase complex (Homo sapiens, UniProt P49768, L282I)", "T2 construct": "made in house", "experiment": "in vitro cleavage assay, Aβ40 production by AlphaLISA", "format": "biochemical", "conditions": "for remaining activity at 0.002 µM / remaining activity at 0.01 µM / remaining activity at 0.04 µM / remaining activity at 0.2 µM / remaining activity at 1 µM / remaining activity at 10 µM: 4 h; for remaining activity at 0.002 µM / remaining activity at 0.01 µM / remaining activity at 0.04 µM / remaining activity at 0.2 µM / remaining activity at 1 µM / remaining activity at 10 µM / Caculated Aβ40 production / raw data from α-Lisa reading: PS1 L282I", "method": "as §1"}, "[3]": {"conditions": "PS2 PI 287 288 TL, MRK-560 2 nM, replicates"}, "[4]": {"conditions": "PS2 PI 287 288 TL, MRK-560 40 nM, replicates"}, "[5]": {"conditions": "PS2 PI 287 288 TL, MRK-560 200 nM, replicates"}, "[6]": {"conditions": "PS2 PI 287 288 TL, MRK-560 1 μM, replicates"}, "[7]": {"conditions": "PS2 PI 287 288 TL, MRK-560 10 μM, replicates"}, "[8]": {"conditions": "PS2 PI 287 288 TL, MRK-560 20 μM, replicates"}},
  "note": "Values joined by “and” are separate entries in the source; they are usually repeats but may differ in a detail not shown here. Equal values may be shown once. Read-outs that look alike come from different tables or passages of the source.",
  "data": [
    {"compound": "O=S(=O)(NC1CCC(c2cc(F)ccc2F)(S(=O)(=O)c2ccc(Cl)cc2)CC1)C(F)(F)F", "note": "(stereo not drawn) [MRK-560, N-[cis-4-[(4-chlorophenyl)sulfonyl]-4-(2,5-difluorophenyl)cyclohexyl]-1,1,1-trifluoromethanesulfonamide]", "values": [
      {"measurement": "remaining activity at 0.002 µM", "setting": "[1]; PS2 PI 287 288 TL, MRK-560 2 nM, mean of 3 replicates, read-out: Normalized production (control=1), Mean", "value": 88.4, "unit": "%"},
      {"measurement": "remaining activity at 0.002 µM", "setting": "[1]; PS2 PI 287 288 TL, MRK-560 2 nM, replicates, read-out: Normalized production (control=1)", "value": 89.8, "unit": "%"},
      {"measurement": "remaining activity at 0.04 µM", "setting": "[1]; PS2 PI 287 288 TL, MRK-560 40 nM, mean of 3 replicates, read-out: Normalized production (control=1), Mean", "value": 38.7, "unit": "%"},
      {"measurement": "remaining activity at 0.04 µM", "setting": "[1]; PS2 PI 287 288 TL, MRK-560 40 nM, replicates, read-out: Normalized production (control=1)", "value": 36.2, "unit": "%"},
      {"measurement": "remaining activity at 0.2 µM", "setting": "[1]; PS2 PI 287 288 TL, MRK-560 200 nM, mean of 3 replicates, read-out: Normalized production (control=1), Mean", "value": 6.34, "unit": "%"},
      {"measurement": "remaining activity at 0.2 µM", "setting": "[1]; PS2 PI 287 288 TL, MRK-560 200 nM, replicates, read-out: Normalized production (control=1)", "value": 6.66, "unit": "%"},
      {"measurement": "remaining activity at 1 µM", "setting": "[1]; PS2 PI 287 288 TL, MRK-560 1 μM, mean of 3 replicates, read-out: Normalized production (control=1), Mean", "value": 1.64, "unit": "%"},
      {"measurement": "remaining activity at 1 µM", "setting": "[1]; PS2 PI 287 288 TL, MRK-560 1 μM, replicates, read-out: Normalized production (control=1)", "value": 1.65, "unit": "%"},
      {"measurement": "remaining activity at 10 µM", "setting": "[1]; PS2 PI 287 288 TL, MRK-560 10 μM, mean of 3 replicates, read-out: Normalized production (control=1), Mean", "value": 0.86, "unit": "%"},
      {"measurement": "remaining activity at 10 µM", "setting": "[1]; PS2 PI 287 288 TL, MRK-560 10 μM, replicates, read-out: Normalized production (control=1)", "value": 0.88, "unit": "%"},
      {"measurement": "remaining activity at 20 µM", "setting": "[1]; PS2 PI 287 288 TL, MRK-560 20 μM, mean of 3 replicates, read-out: Normalized production (control=1), Mean", "value": 1.37, "unit": "%"},
      {"measurement": "remaining activity at 20 µM", "setting": "[1]; PS2 PI 287 288 TL, MRK-560 20 μM, replicates, read-out: Normalized production (control=1)", "value": 1.35, "unit": "%"},
      {"measurement": "Caculated Aβ40 production", "setting": "[1]; [3]", "value": "622.5323 and 598.5358 and 618.8332"},
      {"measurement": "raw data from α-Lisa reading", "setting": "[1]; [3]", "value": "89195 and 86274 and 88747"},
      {"measurement": "Caculated Aβ40 production", "setting": "[1]; [4]", "value": "251.4190 and 280.0544 and 273.5511"},
      {"measurement": "raw data from α-Lisa reading", "setting": "[1]; [4]", "value": "39722 and 43895 and 42953"},
      {"measurement": "Caculated Aβ40 production", "setting": "[1]; [5]", "value": "46.1689 and 42.1835 and 43.6058"},
      {"measurement": "raw data from α-Lisa reading", "setting": "[1]; [5]", "value": "7779 and 7121 and 7356"},
      {"measurement": "Caculated Aβ40 production", "setting": "[1]; [6]", "value": "11.4428 and 11.3299 and 11.2705"},
      {"measurement": "Normalized production (control=1)", "setting": "[1]; [6]", "value": 0.0163},
      {"measurement": "raw data from α-Lisa reading", "setting": "[1]; [6]", "value": "1994 and 1975 and 1965"},
      {"measurement": "Caculated Aβ40 production", "setting": "[1]; [7]", "value": "6.1091 and 5.7952 and 6.0025"},
      {"measurement": "raw data from α-Lisa reading", "setting": "[1]; [7]", "value": "1095 and 1042 and 1077"},
      {"measurement": "Caculated Aβ40 production", "setting": "[1]; [8]", "value": "9.3406 and 8.5277 and 10.7299"},
      {"measurement": "raw data from α-Lisa reading", "setting": "[1]; [8]", "value": "1640 and 1503 and 1874"},
      {"measurement": "IC50", "setting": "[1]; PS2 PI287-288TL, mean ± SD", "value": "25 ± 4", "unit": "nM"},
      {"measurement": "IC50", "setting": "[2]", "value": "90 ± 10", "unit": "nM"},
      {"measurement": "remaining activity at 0.002 µM", "setting": "[2]; MRK-560 2 nM, mean of 3 replicates, read-out: Normalized production (control=1), Mean", "value": 111, "unit": "%"},
      {"measurement": "remaining activity at 0.002 µM", "setting": "[2]; MRK-560 2 nM, replicates, read-out: Normalized production (control=1)", "value": 110, "unit": "%"},
      {"measurement": "remaining activity at 0.01 µM", "setting": "[2]; MRK-560 10 nM, mean of 3 replicates, read-out: Normalized production (control=1), Mean", "value": 108, "unit": "%"},
      {"measurement": "remaining activity at 0.01 µM", "setting": "[2]; MRK-560 10 nM, replicates, read-out: Normalized production (control=1)", "value": 104, "unit": "%"},
      {"measurement": "remaining activity at 0.04 µM", "setting": "[2]; MRK-560 40 nM, mean of 3 replicates, read-out: Normalized production (control=1), Mean", "value": 83.5, "unit": "%"},
      {"measurement": "remaining activity at 0.04 µM", "setting": "[2]; MRK-560 40 nM, replicates, read-out: Normalized production (control=1)", "value": 83.1, "unit": "%"},
      {"measurement": "remaining activity at 0.2 µM", "setting": "[2]; MRK-560 200 nM, mean of 3 replicates, read-out: Normalized production (control=1), Mean", "value": 28.8, "unit": "%"},
      {"measurement": "remaining activity at 0.2 µM", "setting": "[2]; MRK-560 200 nM, replicates, read-out: Normalized production (control=1)", "value": 28.2, "unit": "%"},
      {"measurement": "remaining activity at 1 µM", "setting": "[2]; MRK-560 1 μM, mean of 3 replicates, read-out: Normalized production (control=1), Mean", "value": 3.17, "unit": "%"},
      {"measurement": "remaining activity at 1 µM", "setting": "[2]; MRK-560 1 μM, replicates, read-out: Normalized production (control=1)", "value": 3.28, "unit": "%"},
      {"measurement": "remaining activity at 10 µM", "setting": "[2]; MRK-560 10 μM, mean of 3 replicates, read-out: Normalized production (control=1), Mean", "value": 0.83, "unit": "%"},
      {"measurement": "remaining activity at 10 µM", "setting": "[2]; MRK-560 10 μM, replicates, read-out: Normalized production (control=1)", "value": 0.9, "unit": "%"},
      {"measurement": "Caculated Aβ40 production", "setting": "[2]; MRK-560 2 nM, replicates", "value": "281.9088 and 286.0465 and 285.6579"},
      {"measurement": "raw data from α-Lisa reading", "setting": "[2]; MRK-560 2 nM, replicates", "value": "44163 and 44760 and 44704"},
      {"measurement": "Caculated Aβ40 production", "setting": "[2]; MRK-560 10 nM, replicates", "value": "268.0187 and 289.2618 and 277.4973"},
      {"measurement": "raw data from α-Lisa reading", "setting": "[2]; MRK-560 10 nM, replicates", "value": "42149 and 45223 and 43525"},
      {"measurement": "Caculated Aβ40 production", "setting": "[2]; MRK-560 40 nM, replicates", "value": "213.5518 and 216.6350 and 213.7318"},
      {"measurement": "raw data from α-Lisa reading", "setting": "[2]; MRK-560 40 nM, replicates", "value": "34102 and 34564 and 34129"},
      {"measurement": "Caculated Aβ40 production", "setting": "[2]; MRK-560 200 nM, replicates", "value": "72.5045 and 76.2274 and 73.8042"},
      {"measurement": "raw data from α-Lisa reading", "setting": "[2]; MRK-560 200 nM, replicates", "value": "12089 and 12693 and 12300"},
      {"measurement": "Caculated Aβ40 production", "setting": "[2]; MRK-560 1 μM, replicates", "value": "8.4328 and 8.0651 and 7.9702"},
      {"measurement": "raw data from α-Lisa reading", "setting": "[2]; MRK-560 1 μM, replicates", "value": "1487 and 1425 and 1409"},
      {"measurement": "Caculated Aβ40 production", "setting": "[2]; MRK-560 10 μM, replicates", "value": "2.3045 and 1.9913 and 2.1331"},
      {"measurement": "raw data from α-Lisa reading", "setting": "[2]; MRK-560 10 μM, replicates", "value": "452 and 399 and 423"}
    ]}
  ]
}
